Viability data for one compound are collected here from patent US20120039917A1, “IMMUNO[…]” (priority 2008, published 2012).

This series is described as follows: Sensitivity of cell types to PXD, viability by AV/PI staining. The series is classed as cell-based. Particulars: human, normal bone marrow cells; normal BM, 10 μM PXD for 24 h; read-out: [% viable blasts after PXD exposure]/[% viable blasts after 0.1% DMSO exposure]. As for the experimental part: FIG. 6. Sensitivity of different cell types to PXD. Different cell types were incubated with 10 μM PXD for 24 h and viability was determined by AV/PI staining and reported as [% viable blasts after PXD exposure]/[% viable blasts after 0.1% DMSO exposure]. Percentage values are as follows: AML-derived HL60: 16±5 and HL60p°: 54±6, ALL-derived MOLT-4: 44±4, MM-derived U226: 59±6 and RPMI 8226: 12±4, primary AML blasts: 64±5, primary ALL blasts: 23±4, normal BM: 89±5, proliferating T cells: 69±4, resting T cells: 98±6. Results from cell lines are presented as the average±SEM of at least 3 separate experiments, results from bone marrow samples are presented as the average±SD of single experiments performed in duplicate.
Bone marrow samples from AML (n=22) and ALL (n=8) patients, containing more than 80% blasts, were selected from the tissue bank. […] was determined by AV/PI staining as [% viable blasts after PXD treatment]/[% viable blasts in control sample].
Cells were centrifuged at 1400 rpm in a Multifuge 3 s (Heraeus) for 4 min at room temperature, washed in phosphate buffered saline solution, pH 7.3 (PBS) and resuspended in Annexin V binding buffer. […] Staining was analyzed by flow cytometry using a Becton Dickinson Canto II FACS analyser using FlowJo (TreeStar) software.

Consider `Oc1ccc(C2=Cc3ccc(O)cc3OC2)cc1` [PXD, Isoflav-3-en-4′,7-diol], for which the viability at 24 h, 10 μM amounted to 89 ± 5%.
